Experiments:
MDA-MB-231 = assay: Cytotoxicity against human MDA-MB-231/M cells assessed as reduction in cell viability incubated for 96 hrs by MTT assay; assay type: functional, cell-based; conditions: MDA-MB-231, 96 h
Homo sapiens = species on record: Homo sapiens; assay: Inhibition of CDK1/Cyclin B (unknown origin) at 50 nM by Z'LYTE screening method relative to control
[1] = molecular target: T1, Protein kinase C epsilon type (Homo sapiens) (UniProt Q02156); assay: Inhibition of PKCepsilon (unknown origin) at 50 nM by Z'LYTE screening method relative to control
T1 sequence (whole entry): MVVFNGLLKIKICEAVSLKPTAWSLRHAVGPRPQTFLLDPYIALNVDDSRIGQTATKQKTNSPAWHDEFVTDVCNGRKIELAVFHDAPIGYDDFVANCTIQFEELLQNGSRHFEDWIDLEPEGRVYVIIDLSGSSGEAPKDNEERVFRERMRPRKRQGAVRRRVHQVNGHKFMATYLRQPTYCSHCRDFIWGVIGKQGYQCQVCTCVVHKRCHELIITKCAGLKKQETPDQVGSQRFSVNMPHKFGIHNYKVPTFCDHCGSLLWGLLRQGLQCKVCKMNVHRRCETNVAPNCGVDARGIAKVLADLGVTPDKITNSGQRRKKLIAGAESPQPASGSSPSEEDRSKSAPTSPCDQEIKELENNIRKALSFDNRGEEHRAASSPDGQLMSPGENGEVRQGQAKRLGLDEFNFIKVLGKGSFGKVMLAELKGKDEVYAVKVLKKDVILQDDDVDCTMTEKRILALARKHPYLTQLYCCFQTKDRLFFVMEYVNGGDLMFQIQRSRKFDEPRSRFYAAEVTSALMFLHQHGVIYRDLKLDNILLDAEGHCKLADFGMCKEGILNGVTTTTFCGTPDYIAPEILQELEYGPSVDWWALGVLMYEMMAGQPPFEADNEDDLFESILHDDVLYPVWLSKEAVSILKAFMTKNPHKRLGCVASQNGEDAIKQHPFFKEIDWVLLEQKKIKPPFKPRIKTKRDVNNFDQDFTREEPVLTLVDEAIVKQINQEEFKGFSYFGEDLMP

[2] = molecular target: Protein kinase C beta type (Homo sapiens) (UniProt P05771); assay: Inhibition of PKCbeta2 (unknown origin) at 50 nM by Z'LYTE screening method relative to control
[3] = molecular target: Protein kinase C delta type (Homo sapiens) (UniProt Q05655); assay: Inhibition of PKCdelta (unknown origin) at 50 nM by Z'LYTE screening method relative to control
[4] = molecular target: PI3-kinase p110-alpha/p85-alpha (Homo sapiens) (UniProt P27986+P42336); assay: Inhibition of p110alpha/p85alpha (unknown origin) at 50 nM by Z'LYTE screening method relative to control; assay type: protein-complex assay
[5] = molecular target: Mitogen-activated protein kinase 1 (Homo sapiens) (UniProt P28482); assay: Inhibition of MAPK1 (unknown origin) at 50 nM by Z'LYTE screening method relative to control
[6] = molecular target: CDK1/Cyclin A (Homo sapiens) (UniProt P06493+P20248); assay: Inhibition of CDK1/CyclinA (unknown origin) at 50 nM by Z'LYTE screening method relative to control; assay type: protein-complex assay
4T1 = assay: Cytotoxicity against mouse 4T1 cells assessed as reduction in cell viability incubated for 96 hrs by MTT assay; assay type: functional, cell-based; conditions: 4T1, 96 h
[7] = molecular target: Proto-oncogene tyrosine-protein kinase receptor Ret (Homo sapiens) (UniProt P07949); assay: Inhibition of RET (unknown origin) at 50 nM by Z'LYTE screening method relative to control
[8] = molecular target: Protein kinase C eta type (Homo sapiens, UniProt P24723); assay: Inhibition of PKCeta (unknown origin) at 50 nM by Z'LYTE screening method relative to control
[9] = molecular target: Mitogen-activated protein kinase 11 (Homo sapiens) (UniProt Q15759); assay: Inhibition of MAPK11 (unknown origin) at 50 nM by Z'LYTE screening method relative to control
[10] = molecular target: Proto-oncogene tyrosine-protein kinase Src (Homo sapiens) (UniProt P12931); assay: Inhibition of SRC (unknown origin) at 50 nM by Z'LYTE screening method relative to control
[11] = molecular target: ALK tyrosine kinase receptor (Homo sapiens) (UniProt Q9UM73); assay: Inhibition of ALK (unknown origin) at 50 nM by Z'LYTE screening method relative to control
[12] = molecular target: RAC-alpha serine/threonine-protein kinase (Homo sapiens) (UniProt P31749); assay: Inhibition of AKT1 (unknown origin) at 50 nM by Z'LYTE screening method relative to control
[13] = molecular target: Aurora kinase B (Homo sapiens) (UniProt Q96GD4); assay: Inhibition of AURB (unknown origin) at 50 nM by Z'LYTE screening method relative to control
[14] = molecular target: Dual specificity mitogen-activated protein kinase kinase 1 (Homo sapiens) (UniProt Q02750); assay: Inhibition of MAP2K1 (unknown origin) at 50 nM by Z'LYTE screening method relative to control
[15] = molecular target: Protein kinase C theta type (Homo sapiens, UniProt Q04759); assay: Inhibition of PKCtheta (unknown origin) at 50 nM by Z'LYTE screening method relative to control
[16] = molecular target: Serine/threonine-protein kinase mTOR (Homo sapiens) (UniProt P42345); assay: Inhibition of FRAP1 (unknown origin) at 50 nM by Z'LYTE screening method relative to control
[17] = molecular target: Protein kinase C alpha type (Homo sapiens) (UniProt P17252); assay: Inhibition of PKCalpha (unknown origin) at 50 nM by Z'LYTE screening method relative to control
[18] = molecular target: Tyrosine-protein kinase SYK (Homo sapiens) (UniProt P43405); assay: Inhibition of SYK (unknown origin) at 50 nM by Z'LYTE screening method relative to control
[19] = molecular target: Fibroblast growth factor receptor 1 (Homo sapiens) (UniProt P11362); assay: Inhibition of FGFR1 (unknown origin) at 50 nM by Z'LYTE screening method relative to control
[20] = molecular target: Tyrosine-protein kinase Yes (Homo sapiens) (UniProt P07947); assay: Inhibition of YES1 (unknown origin) at 50 nM by Z'LYTE screening method relative to control
[21] = molecular target: Serine/threonine-protein kinase PAK 1 (Homo sapiens) (UniProt Q13153); assay: Inhibition of PAK1 (unknown origin) at 50 nM by Z'LYTE screening method relative to control
[22] = molecular target: Receptor tyrosine-protein kinase erbB-2 (Homo sapiens) (UniProt P04626); assay: Inhibition of ERBB2 (unknown origin) at 50 nM by Z'LYTE screening method relative to control
[23] = molecular target: Hepatocyte growth factor receptor (Homo sapiens) (UniProt P08581); assay: Inhibition of cMet (unknown origin) at 50 nM by Z'LYTE screening method relative to control
[24] = molecular target: Protein kinase C beta type (Homo sapiens) (UniProt P05771); assay: Inhibition of PKCbeta1 (unknown origin) at 50 nM by Z'LYTE screening method relative to control

Sequence of Protein kinase C theta type (Q04759 whole entry, looked up): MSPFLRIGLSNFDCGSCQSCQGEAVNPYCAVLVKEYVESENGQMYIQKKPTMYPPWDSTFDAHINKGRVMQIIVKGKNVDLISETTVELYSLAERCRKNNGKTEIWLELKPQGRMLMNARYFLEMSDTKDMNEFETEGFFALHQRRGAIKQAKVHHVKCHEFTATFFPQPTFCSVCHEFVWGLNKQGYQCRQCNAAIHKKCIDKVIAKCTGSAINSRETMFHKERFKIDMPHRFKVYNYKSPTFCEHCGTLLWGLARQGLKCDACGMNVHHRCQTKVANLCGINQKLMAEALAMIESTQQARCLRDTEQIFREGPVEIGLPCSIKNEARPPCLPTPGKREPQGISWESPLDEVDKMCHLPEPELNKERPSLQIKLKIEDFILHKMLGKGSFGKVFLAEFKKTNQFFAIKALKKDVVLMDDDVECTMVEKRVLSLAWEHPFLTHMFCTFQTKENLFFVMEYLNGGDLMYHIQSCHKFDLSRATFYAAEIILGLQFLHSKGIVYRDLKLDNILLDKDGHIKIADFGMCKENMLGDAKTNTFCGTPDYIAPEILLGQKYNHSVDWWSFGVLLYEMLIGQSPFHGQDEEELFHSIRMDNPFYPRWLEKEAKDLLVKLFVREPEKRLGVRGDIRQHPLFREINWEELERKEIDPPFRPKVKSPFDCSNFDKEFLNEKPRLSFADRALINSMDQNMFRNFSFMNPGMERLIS
Sequence of Mitogen-activated protein kinase 1 (Homo sapiens) (P28482 whole entry): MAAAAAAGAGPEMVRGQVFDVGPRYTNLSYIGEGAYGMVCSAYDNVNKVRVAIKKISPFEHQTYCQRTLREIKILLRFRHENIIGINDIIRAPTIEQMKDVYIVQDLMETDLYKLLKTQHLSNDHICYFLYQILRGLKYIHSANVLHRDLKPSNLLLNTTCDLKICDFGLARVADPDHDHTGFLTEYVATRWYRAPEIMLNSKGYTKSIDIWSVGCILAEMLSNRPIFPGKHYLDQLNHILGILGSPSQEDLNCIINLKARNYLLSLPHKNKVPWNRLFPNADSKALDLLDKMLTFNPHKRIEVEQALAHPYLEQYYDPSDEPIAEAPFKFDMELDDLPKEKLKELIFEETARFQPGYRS
Sequence of Proto-oncogene tyrosine-protein kinase receptor Ret (Homo sapiens) (P07949 whole entry): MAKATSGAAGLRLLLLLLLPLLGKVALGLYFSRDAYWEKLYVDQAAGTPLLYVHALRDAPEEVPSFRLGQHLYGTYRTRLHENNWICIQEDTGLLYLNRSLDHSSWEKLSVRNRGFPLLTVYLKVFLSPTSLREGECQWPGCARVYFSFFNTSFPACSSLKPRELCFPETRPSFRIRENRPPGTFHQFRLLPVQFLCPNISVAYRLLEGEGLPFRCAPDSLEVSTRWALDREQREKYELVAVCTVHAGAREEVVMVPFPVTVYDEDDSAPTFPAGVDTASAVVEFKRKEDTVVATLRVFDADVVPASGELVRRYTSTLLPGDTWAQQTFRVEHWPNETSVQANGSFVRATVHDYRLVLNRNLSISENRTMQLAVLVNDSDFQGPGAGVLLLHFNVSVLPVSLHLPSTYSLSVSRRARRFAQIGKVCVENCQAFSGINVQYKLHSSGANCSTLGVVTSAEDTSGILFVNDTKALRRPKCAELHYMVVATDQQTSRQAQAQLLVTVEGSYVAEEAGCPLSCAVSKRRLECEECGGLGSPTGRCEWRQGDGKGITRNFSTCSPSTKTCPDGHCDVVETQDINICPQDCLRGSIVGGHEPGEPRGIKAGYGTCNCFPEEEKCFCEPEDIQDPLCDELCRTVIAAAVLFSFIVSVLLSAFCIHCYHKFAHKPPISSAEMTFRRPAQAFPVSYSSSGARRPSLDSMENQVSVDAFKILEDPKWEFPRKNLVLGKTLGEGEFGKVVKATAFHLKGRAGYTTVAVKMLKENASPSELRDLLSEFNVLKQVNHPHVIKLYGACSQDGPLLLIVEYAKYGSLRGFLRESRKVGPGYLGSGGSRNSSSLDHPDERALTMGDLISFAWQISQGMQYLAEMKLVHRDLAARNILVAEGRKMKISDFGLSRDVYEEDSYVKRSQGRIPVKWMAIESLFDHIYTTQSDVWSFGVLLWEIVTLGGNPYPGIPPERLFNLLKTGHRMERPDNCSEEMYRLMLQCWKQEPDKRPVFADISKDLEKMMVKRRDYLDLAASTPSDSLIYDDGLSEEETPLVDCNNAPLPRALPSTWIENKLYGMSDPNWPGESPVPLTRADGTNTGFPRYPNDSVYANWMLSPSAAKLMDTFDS
Sequence of Tyrosine-protein kinase Yes (Homo sapiens) (P07947 2-543 limits assumed): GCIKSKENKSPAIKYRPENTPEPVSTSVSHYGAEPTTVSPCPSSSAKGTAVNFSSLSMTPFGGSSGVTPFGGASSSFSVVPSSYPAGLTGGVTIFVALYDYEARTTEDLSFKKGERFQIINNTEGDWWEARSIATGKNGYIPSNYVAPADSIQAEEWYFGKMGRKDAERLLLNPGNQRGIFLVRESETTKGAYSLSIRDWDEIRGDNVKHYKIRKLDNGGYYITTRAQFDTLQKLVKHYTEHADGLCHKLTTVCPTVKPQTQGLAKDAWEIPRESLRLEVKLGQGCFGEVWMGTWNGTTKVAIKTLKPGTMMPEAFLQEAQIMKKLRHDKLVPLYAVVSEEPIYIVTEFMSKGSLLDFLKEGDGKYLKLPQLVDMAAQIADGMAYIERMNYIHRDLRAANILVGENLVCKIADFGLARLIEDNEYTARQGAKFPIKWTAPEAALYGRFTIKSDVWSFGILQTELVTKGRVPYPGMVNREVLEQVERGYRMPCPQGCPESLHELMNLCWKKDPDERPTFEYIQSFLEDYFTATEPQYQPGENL
Sequence of Mitogen-activated protein kinase 11 (Homo sapiens) (Q15759 whole entry): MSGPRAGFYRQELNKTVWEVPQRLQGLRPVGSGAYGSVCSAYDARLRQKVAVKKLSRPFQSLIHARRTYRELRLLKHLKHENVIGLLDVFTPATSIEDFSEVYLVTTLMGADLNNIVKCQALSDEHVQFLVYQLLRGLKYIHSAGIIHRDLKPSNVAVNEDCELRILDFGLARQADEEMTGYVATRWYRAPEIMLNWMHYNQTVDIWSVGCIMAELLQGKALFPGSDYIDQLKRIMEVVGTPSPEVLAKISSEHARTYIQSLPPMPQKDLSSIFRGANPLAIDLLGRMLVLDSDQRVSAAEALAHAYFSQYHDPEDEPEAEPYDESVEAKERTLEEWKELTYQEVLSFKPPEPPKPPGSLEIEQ
Sequence of Aurora kinase B (Homo sapiens) (Q96GD4 whole entry): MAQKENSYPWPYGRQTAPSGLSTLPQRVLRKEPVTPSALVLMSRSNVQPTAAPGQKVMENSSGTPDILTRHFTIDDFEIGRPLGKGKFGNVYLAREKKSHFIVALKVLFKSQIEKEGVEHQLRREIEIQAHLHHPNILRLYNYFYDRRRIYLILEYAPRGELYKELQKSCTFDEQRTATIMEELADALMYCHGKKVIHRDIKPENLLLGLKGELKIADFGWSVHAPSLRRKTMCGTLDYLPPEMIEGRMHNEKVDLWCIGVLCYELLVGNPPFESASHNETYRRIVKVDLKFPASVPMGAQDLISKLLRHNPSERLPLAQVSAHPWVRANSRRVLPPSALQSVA
Sequence of Serine/threonine-protein kinase PAK 1 (Homo sapiens) (Q13153 whole entry): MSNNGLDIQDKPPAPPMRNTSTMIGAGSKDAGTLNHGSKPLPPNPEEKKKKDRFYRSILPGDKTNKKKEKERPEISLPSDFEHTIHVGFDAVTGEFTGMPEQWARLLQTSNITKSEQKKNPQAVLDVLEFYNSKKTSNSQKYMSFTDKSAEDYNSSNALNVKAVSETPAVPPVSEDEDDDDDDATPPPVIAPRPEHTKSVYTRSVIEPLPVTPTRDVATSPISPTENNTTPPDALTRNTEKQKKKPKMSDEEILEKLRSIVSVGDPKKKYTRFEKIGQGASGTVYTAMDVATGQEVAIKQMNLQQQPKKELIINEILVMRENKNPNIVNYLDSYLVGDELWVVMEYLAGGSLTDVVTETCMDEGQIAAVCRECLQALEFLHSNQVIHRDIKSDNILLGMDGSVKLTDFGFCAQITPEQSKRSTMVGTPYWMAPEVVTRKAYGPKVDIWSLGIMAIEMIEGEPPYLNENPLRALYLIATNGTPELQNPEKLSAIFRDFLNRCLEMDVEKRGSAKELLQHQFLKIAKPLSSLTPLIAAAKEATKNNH

Row | Compound | IC50 (MDA-MB-231) | inhibition (Homo sapiens) | inhibition [1] | inhibition [2] | inhibition [3] | inhibition [4] | inhibition [5] | inhibition [6] | IC50 (4T1) | inhibition [7] | inhibition [8] | inhibition [9] | inhibition [10] | inhibition [11] | inhibition [12] | inhibition [13] | inhibition [14] | inhibition [15] | inhibition [16] | inhibition [17] | also measured
1 | O=c1c2ccccc2[se]n1-c1nc(N[C@@H]2C[C@H]3CC[C@@H]2C3)c2nc[nH]c2n1 | 32.4 µM | 0% | 2% | 62% | 0% | 0% | 0% | 1% | 31.8 µM | 6% | 1% | 4% | 2% | 0% | 0% | 4% | 2% | 15% | 0% | 8% | inhibition [18]: 3%; inhibition [19]: 0%; inhibition [20]: 9%; inhibition [21]: 1%; inhibition [22]: 0%; inhibition [23]: 1%; inhibition [24]: 0%
2 | O=c1c2ccccc2[se]n1-c1nc(NC2CCCCC2)c2nc[nH]c2n1 | 10.2 µM | 0% | 6% | 62% | 0% | 0% | 0% | 3% | 8.1 µM | 13% | 0% | 3% | 3% | 1% | 2% | 7% | 6% | 62% | 0% | 68% | inhibition [18]: 5%; inhibition [19]: 0%; inhibition [20]: 38%; inhibition [21]: 0%; inhibition [22]: 0%; inhibition [23]: 0%; inhibition [24]: 59%
3 | CCN(CC)CCCC(C)Nc1nc(-n2[se]c3ccccc3c2=O)nc2[nH]cnc12 (stereo unspecified) | 16.8 µM | 0% | 8% | 12% | 6% | 0% | 0% | 3% | 15.2 µM | 1% | 11% | 3% | 0% | 2% | 9% | 6% | 3% | 83% | 2% | 18% | inhibition [18]: 4%; inhibition [19]: 0%; inhibition [20]: 15%; inhibition [21]: 14%; inhibition [22]: 1%; inhibition [23]: 14%; inhibition [24]: 8%

From ChEMBL document CHEMBL5154740, “Novel Aurora A and Protein Kinase C (α, β1, β2, and θ) Multitarget Inhibitors: Impact of Selenium Atoms on the Potency and Selectivity” (J Med Chem, 2022)
